# Experimental data as given in patent publication US12564575B2 (priority 2019, dated 2026).
# Entries after “also recorded” stand apart in the source; their conditions may differ.
# Key:
# Streptococcus suis = assay: Juvenile pig with Streptococcus suis infection during experimental envenoming study; assay type: in vivo, Sus domesticus; conditions: S. suis infected juvenile pig; LY315920 plus single non-curative antibiotic dose; euthanized as scheduled
# [1] = test system: vero epithelial cells (CCL-81); assay: ECIS study of vero epithelial cells exposed to snake venom; assay type: cell-based, African green monkey; conditions: for cellular function and cell-cell junction integrity measured by resistance: C. scutulatus whole venom (high sPLA2 content)
# [2] = test system: LPS/OA-induced lung injury and ARDS; assay type: in vivo, C57BL/6 mice
# LPS/OA induced ARDS = test system: LPS/OA induced ARDS; parameters: species or system C57BL/6 mice; conditions: mouse, in vivo, po, 10 mg/kg
# [3] = test system: venom MP (Sistrurus venom metalloprotease activity); assay type: biochemical, Viper, elapid and colubrid venom; conditions: FIG. 4, Table 2; comparison of hydroxamate metalloprotease inhibitors
Compound,survival (Streptococcus suis),difference in response between the two varespladib doses ([1]; 0.05 mg/ml versus 0.01 mg/mL),"inter-cellular attachments (resistance) and cell viability (capacitance) ([1]; C. scutulatus and Daboia russelli (Pakistan) venoms, varespladib 0.05 mg/ml and 0.01 mg/mL)",cellular function and cell-cell junction integrity measured by resistance [1],"clinical appearance of treated animals ([2]; […], 24 and 48 hours, versus lethargic, tachypneic controls)","lung sound amplitude, distance from maximum (audiogram) ([2]; […], recordings at 24 hours, control −29.7 db)","difference in lung sound amplitude between treated and untreated mice ([2]; […], treated quieter)","alveolar damage (ATS workshop lung injury score) ([2]; mouse, in vivo)",damage from LPS/OA induced ARDS (histopathology) (LPS/OA induced ARDS),"potency (IC50) against venom metalloprotease activity, in words [3]"
CCc1c(C(=O)C(N)=O)c2c(OCC(=O)O)cccc2n1Cc1ccccc1 [varespladib],> 100 h,no significant difference,recovers and stabilizes inter-cellular attachments (resistance) and cell viability (capacitance),preserves cellular function and cell-cell junction integrity,–,–,–,–,–,–
"C[C@H](Cc1cccc(-c2cc(Cc3ccccc3)ccc2C(N)=O)c1)C(=O)O [AZD2716, (R)-3-(5′-benzyl-2′-carbamoyl-[1,1′-biphenyl]-3-yl)-2-methylpropanoic acid]",–,–,–,preserves cellular function and cell-cell junction integrity,"bright, alert and responsive",−38.5 db,~10 dB,prevented and rescued; also recorded: protects and reduces alveolar damage,rescue and reduce damage,–
CNC(=O)[C@@H](NC(=O)[C@H](CC(C)C)[C@H](O)C(=O)NO)C(C)(C)C [marimastat],–,–,–,–,–,–,–,–,–,good to excellent performance
